Source: PubChem BioAssay (NCI)
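Results reflect a 48-hour exposure of cells in 96-well plates to compound at five concentrations. TGI: concentration producing complete growth inhibition.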

Assays:
Experiment in all cases: DTP human tumour cell line panel, 48 h
[1] = system: MALME-3M melanoma
[2] = system: A549 NSCLC
[3] = system: OVCAR-4 ovarian
[4] = system: SW-620 colon
[5] = system: LXFL 529 NSCLC
[6] = system: NCI-H23 lung
[7] = system: NCI-H226 lung
[8] = system: M19-MEL melanoma
[9] = system: HCT-116 colon
[10] = system: RXF 393 renal
[11] = system: M14 melanoma
[12] = system: MOLT-4 leukemia
[13] = system: ACHN renal
[14] = system: UO-31 renal
[15] = system: SNB-19 CNS
[16] = system: HL-60(TB) leukemia
[17] = system: K-562 leukemia
[18] = system: DMS 114 small cell lung
[19] = system: KM12 colon
[20] = system: CCRF-CEM leukemia
[21] = system: HOP-62 NSCLC
[22] = system: LOX IMVI melanoma
[23] = system: OVCAR-8 ovarian
[24] = system: NCI-H522 lung
[25] = system: RPMI-8226 leukemia
[26] = system: SR leukemia
[27] = system: SF-268 CNS
[28] = system: DMS 273 small cell lung
[29] = system: TK-10 renal
[30] = system: HT29 colon
[31] = system: SK-OV-3 ovarian
[32] = system: UACC-257 melanoma
[33] = system: XF 498 CNS
[34] = system: NCI-H460 lung
[35] = system: 786-0 renal
[36] = system: EKVX NSCLC
[37] = system: SNB-75 CNS
[38] = system: HOP-18 NSCLC
[39] = system: SNB-78 CNS
[40] = system: COLO 205 colon
[41] = system: KM20L2 colon
[42] = system: SF-295 CNS
[43] = system: SN12C renal
[44] = system: SK-MEL-28 melanoma
[45] = system: HCT-15 colon
[46] = system: SK-MEL-2 melanoma
[47] = system: UACC-62 melanoma
[48] = system: SK-MEL-5 melanoma
[49] = system: U251 CNS
[50] = system: MDA-MB-435
[51] = system: DLD-1 colon
[52] = system: HS 578T breast
[53] = system: MDA-N
[54] = system: PC-3 prostate
[55] = system: NCI/ADR-RES ovarian
[56] = system: IGROV1 ovarian
[57] = system: HOP-92 NSCLC
[58] = system: A498 renal
[59] = system: CAKI-1 renal
[60] = system: OVCAR-3 ovarian
[61] = system: MDA-MB-231 breast
[62] = system: BT-549 breast
[63] = system: T-47D breast
[64] = system: SF-539 CNS
[65] = system: DU-145 prostate
[66] = system: MCF7 breast
[67] = system: HCC-2998 colon
[68] = system: OVCAR-5 ovarian

## CC(=O)O[C@]12CCC[C@H]1C1(O)C(O)CCC[C@H]12 (stereo partly drawn)
[1]
  TGI: > 100 µM
[2]
  TGI: > 100 µM
[3]
  TGI: > 100 µM
[4]
  TGI: > 100 µM
[5]
  TGI: > 100 µM
[6]
  TGI: > 100 µM
[7]
  TGI: > 100 µM
[8]
  TGI: > 100 µM
[9]
  TGI: > 100 µM
[10]
  TGI: > 100 µM
[11]
  TGI: > 100 µM
[12]
  TGI: > 100 µM
[13]
  TGI: > 100 µM
[14]
  TGI: > 100 µM
[15]
  TGI: > 100 µM
[16]
  TGI: > 100 µM
[17]
  TGI: > 100 µM
[18]
  TGI: > 100 µM
[19]
  TGI: > 100 µM
[20]
  TGI: > 100 µM
[21]
  TGI: > 100 µM
[22]
  TGI: > 100 µM
[23]
  TGI: > 100 µM
[24]
  TGI: > 100 µM
[25]
  TGI: > 100 µM
[26]
  TGI: > 100 µM
[27]
  TGI: > 100 µM
[28]
  TGI: > 100 µM
[29]
  TGI: > 100 µM
[30]
  TGI: > 100 µM
[31]
  TGI: > 100 µM
[32]
  TGI: > 100 µM
[33]
  TGI: > 100 µM
[34]
  TGI: > 100 µM
[35]
  TGI: > 100 µM
[36]
  TGI: > 100 µM
[37]
  TGI: > 100 µM
[38]
  TGI: > 100 µM
[39]
  TGI: > 100 µM
[40]
  TGI: > 100 µM
[41]
  TGI: > 100 µM
[42]
  TGI: > 100 µM
[43]
  TGI: > 100 µM
[44]
  TGI: > 100 µM
[45]
  TGI: > 100 µM
[46]
  TGI: > 100 µM
[47]
  TGI: > 100 µM
[48]
  TGI: > 100 µM
[49]
  TGI: > 100 µM

## O=C(O)c1cc2c(s1)C(=O)c1sccc1C2=O
[50]
  TGI: 1.68 µM
[1]
  TGI: 0.806 µM
[2]
  TGI: 8.39 µM
[3]
  TGI: 16.1 µM
[51]
  TGI: 27.7 µM
[4]
  TGI: 5.28 µM
[6]
  TGI: 4.71 µM
[7]
  TGI: 37.1 µM
[8]
  TGI: 2.49 µM
[9]
  TGI: 4.81 µM
[10]
  TGI: 16.9 µM
[52]
  TGI: 5.91 µM
[53]
  TGI: 1.68 µM
[11]
  TGI: 2.91 µM
[54]
  TGI: 43.5 µM
[55]
  TGI: 18.5 µM
[12]
  TGI: 28.6 µM
[13]
  TGI: 25.1 µM
[14]
  TGI: 16 µM
[15]
  TGI: 17.1 µM
[16]
  TGI: 19 µM
[17]
  TGI: 15.2 µM
[18]
  TGI: 11.2 µM
[19]
  TGI: 21.1 µM
[20]
  TGI: 33.1 µM
[56]
  TGI: 30.9 µM
[21]
  TGI: 11.6 µM
[22]
  TGI: 3.04 µM
[23]
  TGI: 14.6 µM
[24]
  TGI: 8.58 µM
[25]
  TGI: 41.7 µM
[57]
  TGI: 30.1 µM
[26]
  TGI: 8.38 µM
[27]
  TGI: 16.4 µM
[28]
  TGI: 22.8 µM
[29]
  TGI: 36 µM
[30]
  TGI: 19 µM
[31]
  TGI: 41.4 µM
[32]
  TGI: 6.27 µM
[33]
  TGI: 35.4 µM
[58]
  TGI: 31.2 µM
[34]
  TGI: 33 µM
[35]
  TGI: 18.1 µM
[59]
  TGI: 31.8 µM
[36]
  TGI: 30.5 µM
[60]
  TGI: 15.6 µM
[37]
  TGI: 3.37 µM
[38]
  TGI: 17.7 µM
[61]
  TGI: 38.4 µM
[39]
  TGI: 0.909 µM
[40]
  TGI: 32.7 µM
[62]
  TGI: 3.78 µM
[41]
  TGI: 35.3 µM
[42]
  TGI: 5.25 µM
[63]
  TGI: 17.3 µM
[64]
  TGI: 3.85 µM
[43]
  TGI: 6.85 µM
[44]
  TGI: 3.45 µM
[45]
  TGI: 11.9 µM
[65]
  TGI: 5.85 µM
[46]
  TGI: 6.03 µM
[66]
  TGI: 7.91 µM
[67]
  TGI: 33.6 µM
[47]
  TGI: 4.56 µM
[68]
  TGI: 23.4 µM
[48]
  TGI: 3.32 µM
[49]
  TGI: 15.6 µM

## Cc1cccc(C(C)(C)C)c1NC(=O)C(=O)C(c1cnc2ccccc2n1)[N+](=O)[O-] (stereo not drawn)
[1]
  TGI: > 100 µM
[2]
  TGI: > 100 µM
[3]
  TGI: > 100 µM
[51]
  TGI: > 100 µM
[4]
  TGI: > 100 µM
[5]
  TGI: > 100 µM
[6]
  TGI: > 100 µM
[7]
  TGI: > 100 µM
[8]
  TGI: > 100 µM
[9]
  TGI: > 100 µM
[10]
  TGI: > 100 µM
[11]
  TGI: > 100 µM
[12]
  TGI: > 100 µM
[13]
  TGI: > 100 µM
[14]
  TGI: > 100 µM
[15]
  TGI: > 100 µM
[16]
  TGI: > 100 µM
[17]
  TGI: > 100 µM
[18]
  TGI: > 100 µM
[19]
  TGI: > 100 µM
[20]
  TGI: > 100 µM
[56]
  TGI: > 100 µM
[21]
  TGI: > 100 µM
[22]
  TGI: > 100 µM
[23]
  TGI: > 100 µM
[24]
  TGI: > 100 µM
[25]
  TGI: > 100 µM
[57]
  TGI: > 100 µM
[26]
  TGI: > 100 µM
[27]
  TGI: > 100 µM
[28]
  TGI: > 100 µM
[29]
  TGI: > 100 µM
[30]
  TGI: > 100 µM
[31]
  TGI: > 100 µM
[32]
  TGI: > 100 µM
[33]
  TGI: > 100 µM
[58]
  TGI: > 100 µM
[34]
  TGI: > 100 µM
[35]
  TGI: > 100 µM
[59]
  TGI: > 100 µM
[36]
  TGI: > 100 µM
[37]
  TGI: > 100 µM
[38]
  TGI: > 100 µM
[39]
  TGI: > 100 µM
[40]
  TGI: > 100 µM
[41]
  TGI: > 100 µM
[42]
  TGI: > 100 µM
[64]
  TGI: > 100 µM
[43]
  TGI: > 100 µM
[44]
  TGI: > 100 µM
[45]
  TGI: > 100 µM
[46]
  TGI: > 100 µM
[67]
  TGI: > 100 µM
[47]
  TGI: > 100 µM
[68]
  TGI: > 100 µM
[48]
  TGI: > 100 µM
[49]
  TGI: > 100 µM
